From PMC6321601 (Molecules, 2018)

Columns and labels:
[1] = system: Bax; experiment: Western blot assay, Bax; assay type: cell-based, human; details: HepG-2, 24 h
Method: (§1) HepG-2 cells were treated with compound 10b for 24 h, and the cell lysates were collected. Then, the total protein was separated by SDS-PAGE and transferred to PVDF membranes. The membranes were incubated with primary antibodies (1:1000) at 4 °C overnight. After being washed with PBST (PBS + 0.5% Tween 20) 5 times, the membranes were incubated with HRP-conjugated secondary antibodies (1:5000 dilution) for 2 h at room temperature. The membranes were then washed with PBST 5 times and the protein blots were detected by ECL chemiluminescence.

[2] = system: STAT3; experiment: Western blot assay, STAT3; assay type: cell-based, human; details: HepG-2, 24 h, different concentrations
Method: as §1

[3] = system: HepG-2 cells; experiment: Cell apoptosis assay, Annexin-V/PI flow cytometry; assay type: cell-based, human; details: HepG-2, 48 h, 0, 1 and 2 µM
Method: HepG-2 cells were seeded into a 24-well plate with 5 × 10^4/well/1 mL. After 12 h, cells were treated with compound 10b at different concentrations for 48 h. The cells were collected, washed with cold PBS, and stained with Annexin-V/PI according to the manufacturer’s instructions. Then, the cells were analyzed with flow cytometry.

[4] = system: Balb/C mice; experiment: In vivo acute toxicity assay; details: intravenous injection; for percentage of death: three mice
Method: To evaluate the toxicity of compound 10b, an acute toxicity assay was performed using Balb/C mice.
Five-week-old Balb/C mice were purchased from the Chinese Academy of Sciences and maintained under specific pathogen free (SPF) conditions. […] The control group mice were treated with vehicle buffer intravenously. […] The compound 10b group mice were treated with compound 10b at doses of 2 mg/kg, 5 mg/kg, 10 mg/kg, 20 mg/kg, and 50 mg/kg respectively (three mice each dose). The clinical symptoms, deaths, and body weight were observed and recorded.

[5] = system: caspase 3; experiment: Western blot assay, caspase 3; assay type: cell-based, human; details: HepG-2, 24 h
Method: as §1

[6] = system: L-O2 human normal liver cells; experiment: MTT assay, toxicity against L-O2 normal cells; assay type: cell-based; details: Homo sapiens, 72 h incubation, mean of three independent experiments
Method in brief: (§2)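 HepG-2 and normal L-O2 liver cells in DMEM with 10% FBS were seeded and, after 12 h, exposed to graded compound concentrations for 72 h at 37 °C. Viability was read by MTT (4 h, formazan dissolved in DMSO, OD 570 nm), and IC50 values were calculated from these readings.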

[7] = system: Bcl-2; experiment: Western blot assay, Bcl-2; assay type: cell-based, human; details: HepG-2, 24 h
Method: as §1

[8] = system: P-STAT3; experiment: Western blot assay, P-STAT3; assay type: cell-based, human; details: HepG-2, 24 h, dose-dependent
Method: as §1

[9] = system: Bim; experiment: Western blot assay, Bim; assay type: cell-based, human; details: HepG-2, 24 h
Method: as §1

[10] = system: HepG-2 human hepatocellular carcinoma cells; experiment: MTT assay, proliferation of HepG-2 cells; assay type: cell-based; details: Homo sapiens, HepG2, 72 h incubation, mean of three independent experiments
Method in brief: as §2

CC(=O)OC(C)(C)/C=C/C(=O)[C@](C)(O)C1[C@H](OC(=O)CCC(=O)OCCCOc2no[n+]([O-])c2S(=O)(=O)c2ccccc2)C[C@@]2(C)C3CC=C4C(CC(O)C(=O)C4(C)C)[C@]3(C)C(=O)C[C@]12C (stereo partly drawn) [Compound 10b, 4-(3-((4-(((9R,13R,14S,16R)-17-((R,E)-6-Acetoxy-2-hydroxy-6-methyl-3-oxohept-4-en-2-yl)-2-hydroxy-4,4,9,13,14-pentamethyl-3,11-dioxo-2,3,4,7,8,9,10,11,12,13,14,15,16,17-tetradecahydro-1H-cyclopenta[a]phenanthren-16-yl)oxy)-4-oxobutanoyl)oxy)propoxy)-3-(phenylsulfonyl)-1,2,5-oxadiazole 2-oxide]
expression of Bax [1]: strongly increased
total expression of STAT3 [2]: remained little changed
induction of cell apoptosis [3]: significantly induced cell apoptosis in a dose-dependent manner
percentage of death ([4]; 2 mg/kg): 0/3
percentage of death ([4]; 5 mg/kg): 0/3
percentage of death ([4]; 10 mg/kg): 0/3
percentage of death ([4]; 20 mg/kg): 0/3
percentage of death ([4]; 50 mg/kg): 1/3
body weight change ([4]; different doses (2-50 mg/kg), compared to the vehicle group): did not change
level of caspase 3 [5]: decreased
IC50 [6]: 2970 ± 230 nM
expression of Bcl-2 [7]: substantially diminished
level of P-STAT3 [8]: clearly inhibited
expression of Bim [9]: strongly increased
IC50 [10]: 630 ± 290 nM
